We go through 19 compounds from ChEMBL document CHEMBL1909046, “DrugMatrix in vitro pharmacology data”.

The target in experiment [1] is Prostaglandin G/H synthase 1 (Homo sapiens, UniProt P23219). Put plainly: biochemical. It is filed as tissue-based, Platelet.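 Further: inhibition of COX-1 enzyme activity, with arachidonic acid supplied as substrate; in other assays of this panel Not Active means under 50% inhibition at 10 µM.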
Experiment [2] concerns the target Delta-type opioid receptor (Homo sapiens, UniProt P41143). The format is cell membranes, HEK293, Membrane. As to conditions: hek293. Further: in other assays of this panel Not Active means under 50% inhibition at 10 µM.
For experiment [3], the target named is T1, Amine oxidase [flavin-containing] A (Homo sapiens, UniProt P21397).
T1 sequence (P21397 whole entry): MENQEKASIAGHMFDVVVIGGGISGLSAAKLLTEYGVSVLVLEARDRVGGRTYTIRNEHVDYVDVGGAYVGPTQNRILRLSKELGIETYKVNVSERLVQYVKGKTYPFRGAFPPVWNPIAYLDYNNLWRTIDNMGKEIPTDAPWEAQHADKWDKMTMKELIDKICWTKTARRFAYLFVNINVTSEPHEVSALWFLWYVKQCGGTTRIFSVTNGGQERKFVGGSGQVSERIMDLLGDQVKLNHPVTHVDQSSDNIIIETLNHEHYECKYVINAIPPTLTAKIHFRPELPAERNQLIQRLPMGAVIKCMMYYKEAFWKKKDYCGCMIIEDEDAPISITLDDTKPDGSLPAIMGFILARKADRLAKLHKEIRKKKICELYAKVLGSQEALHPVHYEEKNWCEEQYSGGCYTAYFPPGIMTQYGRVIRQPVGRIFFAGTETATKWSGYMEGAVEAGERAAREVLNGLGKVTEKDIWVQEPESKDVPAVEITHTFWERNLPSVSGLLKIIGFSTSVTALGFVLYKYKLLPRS
Description: DRUGMATRIX: Monoamine Oxidase MAO-A enzyme inhibition (substrate: Kynuramine). Conditions: Not Active = under 50% inhibition at 10 µM. On the set-up: species or system BTI-TN-5B1-4.

Experiment [4] in a line: DRUGMATRIX: Leukotriene, BLT (LTB4) radioligand binding (ligand: [3H]LTB4). It is filed as cell membranes, Membrane. As to conditions: u-937; Not Active = under 50% inhibition at 10 µM.
Experiment [5] can be described thus: DRUGMATRIX: Glutamate, NMDA, Phencyclidine radioligand binding (ligand: [3H] TCP). The format is cell membranes, Rattus norvegicus, Wistar, Cerebral cortex, Membrane. Conditions: Not Active = under 50% inhibition at 10 µM.
The target in experiment [6] is 5-hydroxytryptamine receptor 2B (Homo sapiens, UniProt P41595). It is filed as cell membranes, CHO-K1, Membrane. As to conditions: for Ki: read-out: Ki. On all read-outs here: in other assays of this panel Not Active means under 50% inhibition at 10 µM.
Chain of 5-hydroxytryptamine receptor 2B (P41595 whole entry): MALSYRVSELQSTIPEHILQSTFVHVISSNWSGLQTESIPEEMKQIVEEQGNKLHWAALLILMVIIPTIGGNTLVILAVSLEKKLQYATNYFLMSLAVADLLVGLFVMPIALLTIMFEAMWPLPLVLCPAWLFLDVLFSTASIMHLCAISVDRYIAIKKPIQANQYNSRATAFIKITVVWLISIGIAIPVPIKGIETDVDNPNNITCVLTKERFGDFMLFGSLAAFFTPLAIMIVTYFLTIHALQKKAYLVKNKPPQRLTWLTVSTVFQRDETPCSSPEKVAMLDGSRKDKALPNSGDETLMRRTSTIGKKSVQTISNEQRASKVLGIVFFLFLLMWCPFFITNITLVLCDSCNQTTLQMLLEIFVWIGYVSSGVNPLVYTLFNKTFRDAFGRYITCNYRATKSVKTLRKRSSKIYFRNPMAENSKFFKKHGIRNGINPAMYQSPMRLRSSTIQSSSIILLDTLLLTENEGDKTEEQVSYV
The target of experiment [7] is C-C chemokine receptor type 5 (Homo sapiens, UniProt P51681). It is filed as cell membranes, Membrane. As to conditions: hek293. Further: in other assays of this panel Not Active means under 50% inhibition at 10 µM.
Chain of C-C chemokine receptor type 5 (P51681 whole entry): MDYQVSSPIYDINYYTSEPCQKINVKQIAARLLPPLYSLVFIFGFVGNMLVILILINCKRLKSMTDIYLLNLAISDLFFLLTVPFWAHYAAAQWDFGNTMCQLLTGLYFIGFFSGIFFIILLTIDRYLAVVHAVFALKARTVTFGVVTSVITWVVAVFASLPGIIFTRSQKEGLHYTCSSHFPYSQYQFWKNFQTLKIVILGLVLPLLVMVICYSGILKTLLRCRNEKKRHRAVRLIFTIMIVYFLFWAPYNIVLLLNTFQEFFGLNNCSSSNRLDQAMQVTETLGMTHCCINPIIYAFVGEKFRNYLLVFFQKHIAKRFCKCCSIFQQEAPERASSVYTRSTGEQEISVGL
For the next experiment, the target named is Estrogen receptor beta (Homo sapiens, UniProt Q92731). As to conditions: sf9. Further: in other assays of this panel Not Active means under 50% inhibition at 10 µM.
Chain of Estrogen receptor beta (Q92731 whole entry): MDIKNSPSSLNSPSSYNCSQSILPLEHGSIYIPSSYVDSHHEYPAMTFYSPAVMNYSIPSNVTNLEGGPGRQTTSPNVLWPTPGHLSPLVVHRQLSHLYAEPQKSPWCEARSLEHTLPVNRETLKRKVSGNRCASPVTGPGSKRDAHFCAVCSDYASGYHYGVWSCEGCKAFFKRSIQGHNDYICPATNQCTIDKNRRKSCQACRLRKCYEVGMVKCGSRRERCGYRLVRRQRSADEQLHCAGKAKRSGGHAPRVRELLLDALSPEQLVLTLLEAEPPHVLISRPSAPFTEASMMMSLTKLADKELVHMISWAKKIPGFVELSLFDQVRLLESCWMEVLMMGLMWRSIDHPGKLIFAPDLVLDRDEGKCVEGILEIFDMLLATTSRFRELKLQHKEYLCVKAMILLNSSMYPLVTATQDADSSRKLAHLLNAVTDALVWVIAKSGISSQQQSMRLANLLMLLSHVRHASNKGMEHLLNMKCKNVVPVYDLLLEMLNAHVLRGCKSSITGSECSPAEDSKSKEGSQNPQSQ

SMILES strings stand for the structures.

Chain of Prostaglandin G/H synthase 1 (P23219 whole entry): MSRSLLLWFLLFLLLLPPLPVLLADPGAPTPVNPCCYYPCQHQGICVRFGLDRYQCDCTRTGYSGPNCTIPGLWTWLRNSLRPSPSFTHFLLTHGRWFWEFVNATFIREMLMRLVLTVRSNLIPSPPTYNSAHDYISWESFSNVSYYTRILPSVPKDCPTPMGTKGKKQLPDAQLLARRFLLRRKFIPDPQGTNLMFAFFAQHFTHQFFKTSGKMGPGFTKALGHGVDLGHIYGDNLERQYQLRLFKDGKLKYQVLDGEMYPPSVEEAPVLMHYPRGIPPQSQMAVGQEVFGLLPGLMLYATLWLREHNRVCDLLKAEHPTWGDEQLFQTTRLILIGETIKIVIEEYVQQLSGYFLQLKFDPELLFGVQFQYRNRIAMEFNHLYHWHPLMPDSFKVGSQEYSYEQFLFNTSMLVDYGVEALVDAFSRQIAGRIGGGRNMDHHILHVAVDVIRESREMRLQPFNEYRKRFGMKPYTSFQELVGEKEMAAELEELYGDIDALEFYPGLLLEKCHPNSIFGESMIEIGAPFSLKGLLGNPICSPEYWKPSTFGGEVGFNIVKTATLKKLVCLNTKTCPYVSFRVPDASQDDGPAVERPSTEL
Chain of Delta-type opioid receptor (P41143 whole entry): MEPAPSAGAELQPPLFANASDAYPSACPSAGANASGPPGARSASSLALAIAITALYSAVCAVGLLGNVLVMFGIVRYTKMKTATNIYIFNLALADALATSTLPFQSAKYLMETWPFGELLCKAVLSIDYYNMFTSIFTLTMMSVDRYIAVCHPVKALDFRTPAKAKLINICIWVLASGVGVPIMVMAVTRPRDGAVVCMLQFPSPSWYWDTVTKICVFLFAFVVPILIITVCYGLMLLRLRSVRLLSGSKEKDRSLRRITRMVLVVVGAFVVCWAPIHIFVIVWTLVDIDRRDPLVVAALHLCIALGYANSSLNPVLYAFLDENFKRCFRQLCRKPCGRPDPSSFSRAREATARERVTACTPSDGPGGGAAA

One may read the IC50 as the concentration that gives 50% inhibition. One may read the Ki as a dissociation constant, usually derived from enzyme kinetics or from competition with a known ligand. `CCOC(=O)[C@H](CCc1ccccc1)N[C@@H](C)C(=O)N1CCC[C@H]1C(=O)O`: the IC50 result in experiment [1] (platelet), in experiment [2], in experiment [3] (bti-tn-5b1-4), in experiment [4], in experiment [5] and in experiment [6] (cho-k1) was “Not Active” each time. For the same compound, the half-inhibitory concentration (IC50) result in experiment [7] is given as “Not Active”. Moreover, the inhibition constant (Ki) entry in experiment [4] and in experiment [5] was “Not Active” each time.
Regarding `[N-]=[N+]=CC(=O)OC[C@H](N)C(=O)O` [AZASERINE], the half-inhibitory concentration (IC50) result in experiment [1] (platelet), in experiment [2], in experiment [3] (bti-tn-5b1-4), in experiment [4], in experiment [5] and in experiment [6] (cho-k1) was “Not Active” in each case. The IC50 entry in experiment [7] is reported as “Not Active”. Moreover, the Ki entry in experiment [4] and in experiment [5] was “Not Active” in each case.
As to `CC(C)C[C@H]1C(=O)N2CCC[C@H]2[C@]2(O)O[C@](NC(=O)[C@@H]3C=C4c5cccc6[nH]c(Br)c(c56)C[C@H]4N(C)C3)(C(C)C)C(=O)N12` [BROMOCRIPTINE], the IC50 result is “Not Active” in experiment [1] (platelet); “Not Active” in experiment [2]; “Not Active” in experiment [3] (bti-tn-5b1-4); “Not Active” in experiment [4]; “Not Active” in experiment [5]; 8.32 nM in experiment [6] (read-out: IC50). In addition, in experiment [7], the IC50 entry is given as “Not Active”. In addition, the Ki entry was “Not Active” in experiment [4], “Not Active” in experiment [5] and 5.29 nM in experiment [6].
As to `CS(=O)(=O)OCCCCOS(C)(=O)=O` [BUSULFAN], the concentration for half-maximal inhibition (IC50) entry in experiment [1] (platelet), in experiment [2], in experiment [3] (bti-tn-5b1-4), in experiment [4], in experiment [5] and in experiment [6] (cho-k1) was “Not Active” throughout. Further, in experiment [7], the IC50 result is listed as “Not Active”. Also, the inhibition constant (Ki) result in experiment [4] and in experiment [5] was “Not Active” throughout.
As for `Nc1nc(Cl)nc2c1ncn2[C@H]1C[C@H](O)[C@@H](CO)O1` [CLADRIBINE], the IC50 result in experiment [1] (platelet), in experiment [2], in experiment [3] (bti-tn-5b1-4), in experiment [4], in experiment [5] and in experiment [6] (cho-k1) was “Not Active” throughout. For the same compound, the IC50 entry in experiment [7] is “Not Active”. Also, the Ki result in experiment [4] and in experiment [5] was “Not Active” in each case.
For `CC[C@H]1OC(=O)[C@H](C)[C@@H](O[C@H]2C[C@@](C)(OC)[C@@H](O)[C@H](C)O2)[C@H](C)[C@@H](O[C@@H]2O[C@H](C)C[C@H](N(C)C)[C@H]2O)[C@](C)(OC)C[C@@H](C)C(=O)[C@H](C)[C@@H](O)[C@]1(C)O` [CLARITHROMYCIN], the IC50 entry in experiment [1] (platelet), in experiment [2], in experiment [3] (bti-tn-5b1-4), in experiment [4], in experiment [5] and in experiment [6] (cho-k1) was “Not Active” each time. The concentration for half-maximal inhibition (IC50) entry in experiment [7] is recorded as “Not Active”. Further, the Ki result in experiment [4] and in experiment [5] was “Not Active” each time.
Turning to `CCN[C@@H](C)Cc1cccc(C(F)(F)F)c1` [DEXFENFLURAMINE], the IC50 entry in experiment [1] (platelet), in experiment [2], in experiment [3] (bti-tn-5b1-4), in experiment [4], in experiment [5] and in experiment [6] (cho-k1) was “Not Active” throughout. In addition, the IC50 entry in experiment [7] is “Not Active”. For the same compound, the Ki entry in experiment [4] and in experiment [5] was “Not Active” each time.
Turning to `C[C@H](C(=O)O)c1cccc(C(=O)c2ccccc2)c1` [DEXKETOPROFEN], the IC50 result (in experiment [2]; in experiment [3] (bti-tn-5b1-4); in experiment [4]; in experiment [5]; in experiment [6] (cho-k1); at Estrogen receptor beta) was “Not Active” each time. Also, the IC50 result in experiment [7] is recorded as “Not Active”. In addition, the Ki result in experiment [4] and in experiment [5] was “Not Active” in each case.
For `CN1C(=O)CN=C(c2ccccc2)c2cc(Cl)ccc21` [DIAZEPAM], the IC50 result in experiment [1] (platelet), in experiment [2], in experiment [3] (bti-tn-5b1-4), in experiment [4], in experiment [5] and in experiment [6] (cho-k1) was “Not Active” each time. Besides, in experiment [7], the IC50 result is reported as “Not Active”. Besides, the Ki result in experiment [4] and in experiment [5] was “Not Active” throughout.
Consider `C=C(CC)C(=O)c1ccc(OCC(=O)O)c(Cl)c1Cl` [ETHACRYNIC ACID], for which the IC50 entry in experiment [1] (platelet), in experiment [2], in experiment [3] (bti-tn-5b1-4), in experiment [4], in experiment [5] and in experiment [6] (cho-k1) was “Not Active” throughout. In addition, the IC50 entry in experiment [7] is reported as “Not Active”. In addition, the Ki entry in experiment [4] and in experiment [5] was “Not Active” in each case.
In the case of `OCCO` [ETHYLENE GLYCOL], the IC50 entry in experiment [1] (platelet), in experiment [2], in experiment [3] (bti-tn-5b1-4), in experiment [4], in experiment [5] and in experiment [6] (cho-k1) was “Not Active” each time. Also, in experiment [7], the IC50 result is recorded as “Not Active”. The Ki entry in experiment [4] and in experiment [5] was “Not Active” in each case.
As to `O=C(O)Cc1ccc(-c2ccccc2)cc1` [FELBINAC], the IC50 in experiment [1] (read-out: IC50) is 894 nM; in experiment [2], “Not Active”; in experiment [3] (bti-tn-5b1-4), “Not Active”; in experiment [4], “Not Active”; in experiment [5], “Not Active”; in experiment [6] (cho-k1) it was “Not Active”. For the same compound, in experiment [7], the IC50 result is given as “Not Active”. The Ki entry in experiment [4] and in experiment [5] was “Not Active” throughout.
Take `CC(C(=O)O)c1ccc(-c2ccccc2)c(F)c1` (stereo not drawn) [FLURBIPROFEN]: the 50% inhibitory concentration (IC50) entry (in experiment [2]; in experiment [3] (bti-tn-5b1-4); in experiment [4]; in experiment [5]; in experiment [6] (cho-k1); against Estrogen receptor beta) was “Not Active” in each case. Moreover, in experiment [7], the concentration for half-maximal inhibition (IC50) result is “Not Active”. Also, the Ki entry in experiment [4] and in experiment [5] was “Not Active” throughout.
In the case of `N=C(N)N/N=C/c1c(Cl)cccc1Cl` [GUANABENZ], the IC50 result is “Not Active” in experiment [1] (platelet); “Not Active” in experiment [2]; 1790 nM in experiment [3] (read-out: IC50); “Not Active” in experiment [4]; “Not Active” in experiment [5]; 97 nM in experiment [6] (read-out: IC50). The IC50 entry in experiment [7] is “Not Active”. For the same compound, the Ki result is “Not Active” in experiment [4], “Not Active” in experiment [5] and 62 nM in experiment [6].
On to `C/C=C\c1ccc(O)c(OC)c1` [ISOEUGENOL], for which the IC50 entry in experiment [1] (platelet), in experiment [2], in experiment [3] (bti-tn-5b1-4), in experiment [4], in experiment [5] and in experiment [6] (cho-k1) was “Not Active” throughout. Moreover, in experiment [7], the IC50 entry is reported as “Not Active”. The inhibitory constant (Ki) entry in experiment [4] and in experiment [5] was “Not Active” throughout.
In the case of `NC[C@H]1O[C@H](O[C@H]2[C@H](O)[C@@H](O[C@H]3O[C@H](CO)[C@@H](O)[C@H](N)[C@H]3O)[C@H](N)C[C@@H]2N)[C@H](O)[C@@H](O)[C@@H]1O` [KANAMYCIN], the IC50 result in experiment [1] (platelet), in experiment [2], in experiment [3] (bti-tn-5b1-4), in experiment [4], in experiment [5] and in experiment [6] (cho-k1) was “Not Active” in each case. In addition, the 50% inhibitory concentration (IC50) entry in experiment [7] is recorded as “Not Active”. The Ki result in experiment [4] and in experiment [5] was “Not Active” each time.
As to `CC(=O)O[C@]1(C(C)=O)CC[C@H]2[C@@H]3C=C(C)C4=CC(=O)CC[C@]4(C)[C@H]3CC[C@@]21C` [MEGESTROL ACETATE], the IC50 entry in experiment [1] (platelet), in experiment [2], in experiment [3] (bti-tn-5b1-4), in experiment [4], in experiment [5] and in experiment [6] (cho-k1) was “Not Active” throughout. For the same compound, the concentration for half-maximal inhibition (IC50) result in experiment [7] was “Not Active”. The Ki result in experiment [4] and in experiment [5] was “Not Active” in each case.
`COc1ccccc1OCC(O)COC(N)=O` (stereo not drawn) [METHOCARBAMOL]: the IC50 entry in experiment [1] (platelet), in experiment [2], in experiment [3] (bti-tn-5b1-4), in experiment [4], in experiment [5] and in experiment [6] (cho-k1) was “Not Active” each time. The IC50 result in experiment [7] is on record as “Not Active”. Besides, the inhibition constant (Ki) entry in experiment [4] and in experiment [5] was “Not Active” each time.
`COc1ccc2cc(CCC(C)=O)ccc2c1` [NABUMETONE]: the concentration for half-maximal inhibition (IC50) entry (in experiment [1] (platelet); in experiment [2]; in experiment [4]; in experiment [5]; in experiment [6] (cho-k1); at Estrogen receptor beta) was “Not Active” in each case. For the same compound, the IC50 result in experiment [7] is listed as “Not Active”. Moreover, the Ki entry in experiment [4] and in experiment [5] was “Not Active” each time.
